In article PMC11855827, “High-Throughput Screening of Five Compound Libraries for Anthelmintic Activity and Toxicity Leads to the Discovery of Two Flavonoid Compounds” (International Journal of Molecular Sciences, 2025):
Read-outs that look alike come from different tables or passages of the source.

System: C. elegans
Assay: microbe, parasite or virus in culture
Settings: Caenorhabditis elegans
[1] = 24 h, read-out: Percentage of motility inhibition 24 h, Table S2, C. elegans SS assay, 110 μM, 24 h, averages of 4 data points
[2] = 0 h, read-out: Percentage of motility inhibition 0 h
[3] = 24 h, read-out: Percentage of motility inhibition 24 h
[4] = 0 h, read-out: Percentage of motility inhibition 0 h, Table S2, C. elegans SS assay, 110 μM, 0 h, averages of 4 data points

Row | Compound | inhibition at 110 µM [1] | inhibition at 110 µM [2] | inhibition at 110 µM [3] | inhibition at 110 µM [4]
1 | O=C1Nc2ccccc2/C1=C1/Nc2ccccc2C1=O [Indirubin] | 6% | – | – | –
2 | c1ccc2[nH]ccc2c1 [Indole] | – | 13% | 9% | –
3 | NC(=O)Cc1c[nH]c2ccccc12 [Indole‐3‐acetamide] | 0% | – | – | 0%
4 | O=C(O)CCCc1c[nH]c2ccccc12 [Indole‐3‐butyric acid] | 0% | – | – | 2%
5 | OCc1c[nH]c2ccccc12 [Indole‐3‐carbinol] | 18% | – | – | 0%
6 | O=C(O)c1c[nH]c2ccccc12 [Indole‐3‐carboxylic acid] | 0% | – | – | 0%
7 | C/C=C(/C)C(=O)O[C@H]1C(C)=C[C@]23C(=O)[C@@H](C=C(CO)[C@@H](O)[C@]12O)[C@H]1[C@@H](C[C@H]3C)C1(C)C [Ingenol Mebutate] | 0% | – | – | 1%
8 | O=c1[nH]cnc2c1ncn2[C@@H]1O[C@H](CO)[C@@H](O)[C@H]1O [Inosine] | 10% | – | – | 34%
9 | COc1cc(-c2coc3cc(O)c(OC)c(O)c3c2=O)cc(O)c1OC [Irigenin] | 3% | – | – | 14%
10 | COc1cc(-c2coc3cc4c(c(OC)c3c2=O)OCO4)cc(OC)c1OC [Irisflorentin] | 34% | – | – | 26%
11 | COc1ccc(-c2coc3cc(O)c(OC)c(O)c3c2=O)cc1 [Irisolidone] | 0% | – | – | 0%
12 | O=C1Nc2ccccc2C1=O [Isatin] | 3% | – | – | 25%
13 | C[C@@H](c1nc(-c2ccc(C#N)cc2)cs1)[C@](O)(Cn1cncn1)c1cc(F)ccc1F [Isavuconazole] | 0% | – | – | 25%
14 | C=C1C(=O)O[C@@H]2C[C@@]3(C)CCCC(=C)[C@@H]3C[C@H]12 [Isoalantolactone] | 12% | – | – | 2%
15 | CC(C)=CCc1c(O)ccc(C(=O)/C=C/c2ccc(O)cc2)c1O [Isobavachalcone] | 15% | – | – | 6%
16 | C=C[C@H]1CN2CC[C@@]3(C(=O)Nc4ccccc43)[C@@H]2C[C@@H]1/C(=C\OC)C(=O)OC [Isocorynoxeine] | 0% | – | – | 0%
17 | C=C1C[C@]2(O)O[C@@]3(CC2=C(C)C)[C@@H](C)CC[C@@H]13 [Isocurcumenol] | 24% | – | – | 5%
18 | C/C=C(\C)C(=O)O[C@H]1[C@H](O)[C@]2(COC(C)=O)[C@H](O)C[C@]3(C)C(=CC[C@@H]4[C@@]5(C)CC[C@H](O[C@@H]6O[C@H](C(=O)O)[C@@H](O[C@@H]7O[C@H](CO)[C@@H](O)[C@H](O)[C@H]7O)[C@H](O)[C@H]6O[C@@H]6O[C@H](CO)[C@@H](O)[C@H](O)[C@H]6O)[C@](C)(CO)[C@@H]5CC[C@]43C)[C@@H]2CC1(C)C [Isoescin IA] | 1% | – | – | 8%
19 | C/C=C(/C)C(=O)O[C@H]1[C@H](O)[C@]2(COC(C)=O)[C@H](O)C[C@]3(C)C(=CC[C@@H]4[C@@]5(C)CC[C@H](O[C@@H]6O[C@H](C(=O)O)[C@@H](O[C@@H]7O[C@H](CO)[C@@H](O)[C@H](O)[C@H]7O)[C@H](O)[C@H]6O[C@@H]6O[C@H](CO)[C@@H](O)[C@H](O)[C@H]6O)[C@](C)(CO)[C@@H]5CC[C@]43C)[C@@H]2CC1(C)C [Isoescin IB] | 0% | – | – | 9%
20 | COc1ccc(-c2cc(=O)c3c(O)cc(O)c(-c4cc(-c5cc(=O)c6c(O)cc(O)cc6o5)ccc4OC)c3o2)cc1 [Isoginkgetin] | 19% | – | – | 17%

Row | Compound | inhibition at 110 µM [1] | inhibition at 110 µM [2] | inhibition at 110 µM [3] | inhibition at 110 µM [4]
21 | COc1ccc(C[C@@H]2c3cc(Oc4cc(C[C@@H]5c6cc(O)c(OC)cc6CCN5C)ccc4O)c(OC)cc3CCN2C)cc1 [Isoliensinine] | – | 3% | 17% | –
22 | C=C[C@@]1(C)Cc2occ(C)c2[C@@H]2OC(=O)C(=C)[C@@H]21 [Isolinderalactone] | 9% | – | – | 13%
23 | O=C(/C=C/c1ccc(O)cc1)c1ccc(O)cc1O [Isoliquiritigenin] | 4% | – | – | 16%
24 | O=C(/C=C/c1ccc(O[C@@H]2O[C@H](CO)[C@@H](O)[C@H](O)[C@H]2O)cc1)c1ccc(O)cc1O [Isoliquiritin] | 2% | – | – | 24%
25 | NNC(=O)c1ccncc1 [Isoniazid] | 27% | – | – | 26%
26 | O=C(O)c1ccncc1 [Isonicotinic acid] | 0% | – | – | 0%
27 | O=c1cc(-c2ccc(O)c(O)c2)oc2cc(O)c([C@@H]3O[C@H](CO)[C@@H](O)[C@H](O)[C@H]3O)c(O)c12 [Isoorientin] | 22% | – | – | 6%
28 | C=C[C@@]1(C)CC[C@H]2C(=CC[C@@H]3[C@]2(C)CCC[C@@]3(C)C(=O)O)C1 [Isopimaric acid] | – | 0% | 14% | –
29 | O=c1c(O[C@@H]2O[C@H](CO)[C@@H](O)[C@H](O)[C@H]2O)c(-c2ccc(O)c(O)c2)oc2cc(O)cc(O)c12 [Isoquercitrin] | 2% | – | – | 31%
30 | COc1cc(-c2oc3cc(O)cc(O)c3c(=O)c2O)ccc1O [Isorhamnetin] | 2% | – | – | 22%
31 | C[C@@H]1O[C@@H](OC[C@H]2O[C@@H](Oc3cc(O)c4c(=O)cc(-c5ccc(O)cc5)oc4c3)[C@H](O)[C@@H](O)[C@@H]2O)[C@H](O)[C@H](O)[C@H]1O [Isorhoifolin] | 20% | – | – | 0%
32 | CC[C@H]1CN2CC[C@@]3(C(=O)Nc4ccccc43)[C@@H]2C[C@@H]1/C(=C\OC)C(=O)OC [Isorhynchophylline] | 0% | – | – | 0%
33 | C[C@@]12CC[C@@H]3[C@@](CC[C@H]4[C@@]3(C)CCC[C@@]4(C)C(=O)O)(CC1=O)C2 [Isosteviol] | 2% | – | – | 0%
34 | O=c1cc(-c2ccc(O)cc2)oc2cc(O)c([C@@H]3O[C@H](CO)[C@@H](O)[C@H](O)[C@H]3O)c(O)c12 [Isovitexin] | 6% | – | – | 11%
35 | CCC(C)n1ncn(-c2ccc(N3CCN(c4ccc(OCC5COC(Cn6cncn6)(c6ccc(Cl)cc6Cl)O5)cc4)CC3)cc2)c1=O (stereo not shown) [Itraconazole] | 22% | – | – | 18%
36 | CC1=C2C(=O)[C@H]3[C@@H](CC=C4C[C@@H](O)CC[C@@]43C)[C@@H]2CC[C@]12O[C@@H]1C[C@H](C)CN[C@H]1[C@H]2C [Jervine] | 33% | – | – | 0%
37 | COc1ccc(-c2oc3cc(O)cc(O)c3c(=O)c2O)cc1 [Kaempferide] | 0% | – | – | 49%
38 | C[C@@H]1O[C@@H](Oc2cc(O)c3c(=O)c(O[C@@H]4O[C@@H](C)[C@H](O)[C@@H](O)[C@H]4O)c(-c4ccc(O)cc4)oc3c2)[C@H](O)[C@H](O)[C@H]1O [Kaempferitrin] | 16% | – | – | 4%
39 | O=c1c(O)c(-c2ccc(O)cc2)oc2cc(O)cc(O)c12 [Kaempferol] | 25% | – | – | 0%
40 | C=C(C)[C@H]1CN[C@H](C(=O)O)[C@H]1CC(=O)O [Kainic acid] | 0% | – | – | 0%
